{"source": "patent US7138361B2", "about": "“Herbicidal heterocycles” (E. I. du Pont de Nemours and Company, priority 2000, dated 2006)", "format_in_all_cases": "in vivo", "key": {"[1]": {"system": "giant foxtail (Setaria faberii)", "test": "Test B postemergence", "settings": "Rate 125 g/ha, scale 0 to 100, 0 no effect, 100 complete control", "procedure,_shortened": "(§1)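 Greenhouse test: chemicals are formulated in a surfactant-containing non-phytotoxic solvent and applied either preemergence to planted seeds or postemergence to plants 2 to 18 cm tall. Response is rated visually versus controls after 13 to 15 days, 0 meaning no effect and 100 complete control.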"}, "[2]": {"system": "wheat (Triticum aestivum)", "test": "Test B postemergence", "settings": "Rate 125 g/ha, scale 0 to 100, 0 no effect, 100 complete control", "procedure,_shortened": "as §1"}, "[3]": {"system": "velvetleaf (Abutilon theophrasti)", "test": "Test B postemergence", "settings": "Rate 125 g/ha, scale 0 to 100, 0 no effect, 100 complete control", "procedure,_shortened": "as §1"}, "corn (Zea mays)": {"system": "corn (Zea mays)", "test": "Test B postemergence", "procedure,_shortened": "as §1"}, "Nightshade": {"system": "Nightshade", "test": "Test C preemergence"}, "[4]": {"system": "giant foxtail (Setaria faberii)", "test": "Test C preemergence", "procedure,_shortened": "(§2)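 Visual injury scores of 0–100, with 100 meaning complete control, were given relative to controls after 12–14 days in the greenhouse. Treatments used a surfactant-containing non-phytotoxic solvent formulation, sprayed on seeded pots preemergence or on 1–4-leaf plants of 2–18 cm postemergence.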"}, "[5]": {"system": "velvetleaf (Abutilon theophrasti)", "test": "Test C preemergence", "procedure,_shortened": "as §2"}, "[6]": {"system": "pigweed (Amaranthus retroflexus)", "test": "Test C preemergence", "procedure,_shortened": "as §2"}, "[7]": {"system": "crabgrass (Digitaria sanguinalis)", "test": "Test C preemergence", "procedure,_shortened": "as §2"}, "[8]": {"system": "johnsongrass (Sorghum halepense)", "test": "Test C preemergence", "procedure,_shortened": "as §2"}, "[9]": {"system": "woolly cupgrass (Eriochloa villosa)", "test": "Test C preemergence", "procedure,_shortened": "as §2"}, "[10]": {"system": "common ragweed (Ambrosia elatior)", "test": "Test C preemergence", "procedure,_shortened": "as §2"}, "[11]": {"system": "bermudagrass (Cynodon dactylon)", "test": "Test C preemergence", "procedure,_shortened": "as §2"}, "[12]": {"system": "goosegrass (Eleusine indica)", "test": "Test C preemergence", "procedure,_shortened": "as §2"}, "[13]": {"system": "cocklebur (Xanthium strumarium)", "test": "Test C preemergence", "procedure,_shortened": "as §2"}, "Sunflower [14]": {"system": "Sunflower", "test": "Test C preemergence", "settings": "Rate 125 g/ha; scale 0 to 100, 0 no effect, 100 complete control"}, "[15]": {"system": "yellow nutsedge (Cyperus esculentus)", "test": "Test C preemergence", "procedure,_shortened": "as §2"}, "soybean (Glycine max)": {"system": "soybean (Glycine max)", "test": "Test C preemergence", "procedure,_shortened": "as §2"}, "[16]": {"system": "lambsquarters (Chenopodium album)", "test": "Test C preemergence", "procedure,_shortened": "as §2"}, "Sunflower [17]": {"system": "Sunflower", "test": "Test C preemergence", "settings": "Rate 62 g/ha, scale 0 to 100"}, "[18]": {"settings": "Rate 125 g/ha, scale 0 to 100, 0 no effect, 100 complete control"}, "[19]": {"settings": "preemergence, Rate 62 g/ha, scale 0 to 100"}, "[20]": {"settings": "preemergence, Rate 500 g/ha, visual evaluation after 12 to 14 days"}, "[21]": {"settings": "preemergence, Rate 250 g/ha, scale 0 to 100, 0 no effect, 100 complete control"}}, "data": [{"smiles": "CCC(CC)c1ccn(C2OCN(c3cccc(OC(F)F)c3)C2=O)n1", "note": "(centres unmarked) [Compound 131]", "values": [{"measurement": "Plant response rating, Foxtail, Giant", "setting": "[1]", "result": 20}, {"measurement": "Plant response rating, Wheat", "setting": "[2]", "result": 0}, {"measurement": "Plant response rating, Velvetleaf", "setting": "[3]", "result": 0}, {"measurement": "Plant response rating, Corn", "setting": "corn (Zea mays); [18]", "result": 0}, {"measurement": "Plant response rating, Corn", "setting": "corn (Zea mays); Rate 500 g/ha, scale 0 to 100, 0 is no effect, 100 is complete control, 13 to 15 days", "result": 20}, {"measurement": "Plant response rating, Nightshade", "setting": "Nightshade; Rate 62 g/ha, scale 0 to 100", "result": 90}, {"measurement": "Plant response rating, Nightshade", "setting": "Nightshade; [18]", "result": 100}, {"measurement": "Plant response rating, Nightshade", "setting": "Nightshade; Rate 250 g/ha, scale 0 to 100, 0 no effect, 100 complete control", "result": 100}, {"measurement": "Plant response rating, Foxtail, Giant", "setting": "[4]; [18]", "result": 100}, {"measurement": "Plant response rating, Foxtail, Giant", "setting": "[4]; [19]", "result": 90}, {"measurement": "Plant response rating (0 to 100), Foxtail, Giant", "setting": "[4]; [20]", "result": 100}, {"measurement": "Plant response rating, Foxtail, Giant", "setting": "[4]; [21]", "result": 100}, {"measurement": "Plant response rating, Velvetleaf", "setting": "[5]; [18]", "result": 30}, {"measurement": "Plant response rating, Velvetleaf", "setting": "[5]; [19]", "result": 20}, {"measurement": "Plant response rating (0 to 100), Velvetleaf", "setting": "[5]; [20]", "result": 70}, {"measurement": "Plant response rating, Velvetleaf", "setting": "[5]; [21]", "result": 70}, {"measurement": "Plant response rating, Pigweed", "setting": "[6]; [18]", "result": 90}, {"measurement": "Plant response rating, Pigweed", "setting": "[6]; [19]", "result": 90}, {"measurement": "Plant response rating (0 to 100), Pigweed", "setting": "[6]; [20]", "result": 100}, {"measurement": "Plant response rating, Pigweed", "setting": "[6]; [21]", "result": 100}, {"measurement": "Plant response rating, Crabgrass", "setting": "[7]; [18]", "result": 100}, {"measurement": "Plant response rating, Crabgrass", "setting": "[7]; [19]", "result": 100}, {"measurement": "Plant response rating (0 to 100), Crabgrass", "setting": "[7]; [20]", "result": 100}, {"measurement": "Plant response rating, Crabgrass", "setting": "[7]; [21]", "result": 100}, {"measurement": "Plant response rating, Johnsongrass", "setting": "[8]; [18]", "result": 70}, {"measurement": "Plant response rating, Johnsongrass", "setting": "[8]; [19]", "result": 30}, {"measurement": "Plant response rating (0 to 100), Johnsongrass", "setting": "[8]; [20]", "result": 100}, {"measurement": "Plant response rating, Johnsongrass", "setting": "[8]; [21]", "result": 80}, {"measurement": "Plant response rating, Cupgrass, Woolly", "setting": "[9]; [18]", "result": 100}, {"measurement": "Plant response rating, Cupgrass, Woolly", "setting": "[9]; [19]", "result": 100}, {"measurement": "Plant response rating (0 to 100), Cupgrass, Woolly", "setting": "[9]; [20]", "result": 100}, {"measurement": "Plant response rating, Cupgrass, Woolly", "setting": "[9]; [21]", "result": 100}, {"measurement": "Plant response rating, Ragweed, Common", "setting": "[10]; [18]", "result": 0}, {"measurement": "Plant response rating, Ragweed, Common", "setting": "[10]; [19]", "result": 0}, {"measurement": "Plant response rating (0 to 100), Ragweed, Common", "setting": "[10]; [20]", "result": 100}, {"measurement": "Plant response rating, Ragweed, Common", "setting": "[10]; [21]", "result": 0}, {"measurement": "Plant response rating, Bermudagrass", "setting": "[11]; [18]", "result": 100}, {"measurement": "Plant response rating, Bermudagrass", "setting": "[11]; [19]", "result": 100}, {"measurement": "Plant response rating (0 to 100 where 0 is no effect and 100 is complete control), Bermudagrass", "setting": "[11]; [20]", "result": 100}, {"measurement": "Plant response rating, Bermudagrass", "setting": "[11]; [21]", "result": 100}, {"measurement": "Plant response rating, Goosegrass", "setting": "[12]; [18]", "result": 100}, {"measurement": "Plant response rating, Goosegrass", "setting": "[12]; [19]", "result": 100}, {"measurement": "Plant response rating (0 to 100), Goosegrass", "setting": "[12]; [20]", "result": 100}, {"measurement": "Plant response rating, Goosegrass", "setting": "[12]; [21]", "result": 100}, {"measurement": "Plant response rating, Cocklebur", "setting": "[13]; [18]", "result": 0}, {"measurement": "Plant response rating, Cocklebur", "setting": "[13]; [19]", "result": 0}, {"measurement": "Plant response rating (0 to 100), Cocklebur", "setting": "[13]; [20]", "result": 30}, {"measurement": "Plant response rating, Cocklebur", "setting": "[13]; [21]", "result": 30}, {"measurement": "Plant response rating, Sunflower", "setting": "Sunflower [14]", "result": 20}, {"measurement": "Plant response rating, Nutsedge", "setting": "[15]; [18]", "result": 90}, {"measurement": "Plant response rating, Nutsedge", "setting": "[15]; [19]", "result": 0}, {"measurement": "Plant response rating (0 to 100), Nutsedge", "setting": "[15]; [20]", "result": 100}, {"measurement": "Plant response rating, Nutsedge", "setting": "[15]; [21]", "result": 90}, {"measurement": "Plant response rating, Soybean", "setting": "soybean (Glycine max); [18]", "result": 0}, {"measurement": "Plant response rating, Soybean", "setting": "soybean (Glycine max); [19]", "result": 0}, {"measurement": "Plant response rating (0 to 100), Soybean", "setting": "soybean (Glycine max); [20]", "result": 40}, {"measurement": "Plant response rating, Soybean", "setting": "soybean (Glycine max); [21]", "result": 40}, {"measurement": "Plant response rating, Lambsquarters", "setting": "[16]; [18]", "result": 100}, {"measurement": "Plant response rating, Lambsquarters", "setting": "[16]; [19]", "result": 100}, {"measurement": "Plant response rating (0 to 100), Lambsquarters", "setting": "[16]; [20]", "result": 100}, {"measurement": "Plant response rating, Lambsquarters", "setting": "[16]; [21]", "result": 100}, {"measurement": "Plant response rating, Sunflower", "setting": "Sunflower [17]", "result": 20}]}]}
